Holding throughout (assay type): in vivo
Test [1] deals with Myzus persicae. The test is described as follows: Myzus persicae spray test. To be noted: foliar, 120 h, application rate 100 g/ha, Chinese cabbage leaf discs, after 5 days, read-out: efficacy. On the procedure: (§1) [table] To produce a suitable active ingredient formulation, 1 part by weight of active ingredient is dissolved with the specified parts by weight of solvent and made up to the desired concentration with water containing an emulsifier concentration of 1000 ppm. To produce further test concentrations, the formulation is diluted with emulsifier-containing water. Discs of Chinese cabbage leaves (Brassica pekinensis) infested by all stages of the green peach aphid (Myzus persicae) are sprayed with an active ingredient formulation of the desired concentration. After 5 days, the efficacy in % is determined. 100% means that all the aphids have been killed; 0% means that no aphids have been killed.

The next test concerns Tetranychus urticae. The test is described as follows: Tetranychus urticae spray test, OP-resistant. Conditions: foliar, 144 h, bean leaf discs, after 6 days, read-out: efficacy; for pest or weed control at 100 g/ha: application rate 100 g/ha; for pest or weed control at 20 g/ha: application rate 20 g/ha. On the procedure:
[table] To produce a suitable active ingredient formulation, 1 part by weight of active ingredient is dissolved with the specified parts by weight of solvent and made up to the desired concentration with water containing an emulsifier concentration of 1000 ppm. To produce further test concentrations, the formulation is diluted with emulsifier-containing water. Discs of bean leaves (Phaseolus vulgaris) infested with all stages of the greenhouse red spider mite (Tetranychus urticae) are sprayed with an active ingredient formulation of the desired concentration. After 6 days, the efficacy in % is determined. 100% means that all the spider mites have been killed; 0% means that no spider mites have been killed.

In test [2] the test system is Myzus persicae. In words: Myzus persicae oral test. Conditions: 120 h, application rate 4 ppm, after 5 days, read-out: efficacy. As to the method: [table] To produce a suitable active ingredient formulation, 1 part by weight of active ingredient is dissolved with the stated parts by weight of solvent and made up to the desired concentration with water. 50 μl of the active ingredient formulation are transferred into microtitre plates and made up to a final volume of 200 μl with 150 μl of IPL41 insect medium (33%+15% sugar). Subsequently, the plates are sealed with parafilm, which a mixed population of green peach aphids (Myzus persicae) within a second microtitre plate is able to puncture and imbibe the solution. After 5 days, the efficacy in % is determined. 100% means that all the aphids have been killed; 0% means that no aphids have been killed.

In the next test the test system is Phaedon cochleariae. The test is described as follows: Phaedon cochleariae spray test. Conditions: 168 h, larvae, after 7 days, read-out: efficacy; for pest or weed control at 100 g/ha: application rate 100 g/ha. On the procedure: as §1, with “pekinensis)” for “pekinensis) infested by all stages of the green peach aphid (Myzus persicae)”, “concentration and, after drying, populated with larvae of the mustard beetle (Phaedon cochleariae).” for “concentration.”, “7” for “5”, “beetle larvae” for “aphids”

For a further test, the system named is Spodoptera frugiperda. In words: Spodoptera frugiperda spray test. To be noted: foliar, 168 h, application rate 100 g/ha, maize leaf discs, caterpillars, after 7 days, read-out: efficacy. On the procedure: [table] To produce a suitable active ingredient formulation, 1 part by weight of active ingredient is dissolved with the specified parts by weight of solvent and made up to the desired concentration with water containing an emulsifier concentration of 1000 ppm. To produce further test concentrations, the formulation is diluted with emulsifier-containing water. Leaf discs of maize (Zea mays) are sprayed with an active ingredient formulation of the desired concentration and, after drying, populated with caterpillars of the fall armyworm (Spodoptera frugiperda). After 7 days, the efficacy in % is determined. 100% means that all the caterpillars have been killed; 0% means that no caterpillar has been killed.

The test system of test [3] is Ctenocephalides felis. In words: Ctenocephalides felis in vitro contact test with adult cat fleas. Conditions: application rate 5 μg/cm^2 (=500 g/ha), adult cat fleas dead or moribund after 48 h, read-out: efficacy. On the procedure:
For the coating of the test tubes, 9 mg of active ingredient are first dissolved in 1 ml of acetone p.a. and then diluted to the desired concentration with acetone p.a. 250 μl of the solution are distributed homogeneously on the inner walls and the base of a 25 ml glass tube by turning and rocking on an orbital shaker (rocking rotation at 30 rpm for 2 h). With 900 ppm of active ingredient solution and internal surface area 44.7 cm^2, given homogeneous distribution, an area-based dose of 5 μg/cm^2 is achieved. After the solvent has evaporated off, the tubes are populated with 5-10 adult cat fleas (Ctenocephalides felis), sealed with a perforated plastic lid and incubated in a horizontal position at room temperature and ambient humidity. After 48 h, efficacy is determined. To this end, the tubes are stood upright and the fleas are knocked to the base of the tube. Fleas which remain motionless at the base or move in an uncoordinated manner are considered to be dead or moribund. […] 100% efficacy means that all the fleas were dead or moribund. 0% efficacy means that no fleas were harmed.

In test [4] the test system is Ctenocephalides felis. In words: Ctenocephalides felis oral test. Conditions: 48 h, application rate 100 ppm in citrated cattle blood, kill after 2 days, read-out: efficacy. As to the method:
Solvent: dimethyl sulfoxide To produce a suitable active ingredient formulation, 10 mg of active ingredient are mixed with 0.5 ml of dimethyl sulfoxide. Dilution with citrated cattle blood gives the desired concentration. About 20 unfed adult cat fleas (Ctenocephalides felis) are placed into a chamber which is closed at the top and bottom with gauze. A metal cylinder whose bottom end is closed with parafilm is placed onto the chamber. The cylinder contains the blood/active ingredient formulation, which can be imbibed by the fleas through the parafilm membrane. After 2 days, the kill in % is determined. 100% means that all of the fleas have been killed; 0% means that none of the fleas have been killed.

A further test concerns Lucilia cuprina. The test is described as follows: Lucilia cuprina test. To be noted: 48 h, application rate 100 ppm, L1 larvae, kill after 2 days, read-out: efficacy. As to the method:
Solvent: dimethyl sulfoxide To produce a suitable active ingredient formulation, 10 mg of active ingredient are mixed with 0.5 ml of dimethyl sulfoxide, and the concentrate is diluted with water to the desired concentration. About 20 L1 larvae of the Australian sheep blowfly (Lucilia cuprina) are transferred into a test vessel containing minced horsemeat and the active ingredient formulation of the desired concentration. After 2 days, the kill in % is determined. 100% means that all the larvae have been killed; 0% means that no larvae have been killed.

Experimental findings from US11083199B2, “Heterocycle derivatives as pesticides” (Bayer Aktiengesellschaft, priority 2017, dated 2021) are described below.

As for `CCS(=O)(=O)c1c(-c2nc3cc(C(F)(F)F)ncc3n2C)nc(C2=CCC(C)CC2)n1C` (centres unmarked) [Example I-074], the pest or weed control at 100 g/ha in the test with Myzus persicae [1] and in the test with Tetranychus urticae was 90% in each case.
Consider `CCS(=O)(=O)c1c(-c2nc3cc(C(F)(F)F)ncc3n2C)nc(-c2ccc(C#N)c(Cl)c2)n1C` [Example I-082], for which the pest or weed control at 4 ppm with Myzus persicae [2] came to 100%. Also, the pest or weed control at 100 g/ha in the test with Myzus persicae [1] came out at 90%; with Phaedon cochleariae it was 100%; in the test on Spodoptera frugiperda, 83%; with Tetranychus urticae, 100%. Moreover, the pest or weed control at 20 g/ha in the test on Tetranychus urticae was found to be 100%.
In the case of `CCS(=O)(=O)c1c(-c2nc3cc(C(F)(F)F)ncc3n2C)nc(-c2cncnc2)n1C` [Example I-023], in the test on Ctenocephalides felis [3], the pest or weed control at 5 µg/cm2, 500 g/ha was 100%. Also, the pest or weed control at 100 ppm in the test on Ctenocephalides felis [4] and in the test with Lucilia cuprina was 100% each time. The pest or weed control at 4 ppm in the test with Myzus persicae [2] turned out to be 100%. The pest or weed control at 100 g/ha in the test with Myzus persicae [1] and with Phaedon cochleariae was 100% in each case.
As for `CCS(=O)(=O)c1c(-c2nc3cc(C(F)(F)F)ncc3n2C)nc(-c2ccc(C#N)n2C)n1C` [Example I-054], in the test on Myzus persicae [2], the pest or weed control at 4 ppm amounted to 90%. Moreover, the pest or weed control at 100 g/ha with Tetranychus urticae stood at 100%.
On to `CCS(=O)(=O)c1c(-c2nc3cc(C(F)(F)F)ncc3n2C)nc(-c2cccc(C(C)(C)C#N)c2)n1C` [Example I-075], for which, in the test with Myzus persicae [2], the pest or weed control at 4 ppm came out at 100%. Also, the pest or weed control at 100 g/ha in the test on Myzus persicae [1] and in the test with Tetranychus urticae was 90% each time.
For the compound `CCS(=O)(=O)c1c(-c2nc3cc(C(F)(F)F)ncc3n2C)nc(-c2ccc(C3(C#N)CC3)cc2C)n1C` [Example I-076], the pest or weed control at 100 g/ha in the test on Myzus persicae [1] came to 100%; with Phaedon cochleariae it was 100%; in the test on Spodoptera frugiperda, 100%; in the test on Tetranychus urticae it was 90%.
As for `CCS(=O)(=O)c1c(-c2nc3cc(C(F)(F)F)ncc3n2C)nc(-c2ccc(C3(C#N)CC3)c(F)c2)n1C` [Example I-070], the pest or weed control at 4 ppm in the test on Myzus persicae [2] worked out at 100%. Also, the pest or weed control at 100 g/ha in the test with Myzus persicae [1] was found to be 100%; in the test on Phaedon cochleariae it was 100%; in the test on Spodoptera frugiperda, 83%; with Tetranychus urticae it was 100%.
Regarding `CCS(=O)(=O)c1c(-c2nc3cc(C(F)(F)F)ncc3n2C)nc(-c2ccccc2)n1C` [Example I-003], in the test on Ctenocephalides felis [3], the pest or weed control at 5 µg/cm2, 500 g/ha turned out to be 100%. Besides, the pest or weed control at 100 ppm in the test on Ctenocephalides felis [4] and with Lucilia cuprina was 100% throughout. Besides, the pest or weed control at 4 ppm in the test with Myzus persicae [2] is 100%. In addition, the pest or weed control at 100 g/ha with Myzus persicae [1] turned out to be 90%.
Regarding `CCS(=O)(=O)c1c(-c2nc3cc(C(F)(F)F)ncc3n2C)ncn1C` [Example I-029, 2-[5-(Ethylsulfonyl)-1-methyl-1H-imidazol-4-yl]-3-methyl-6-(trifluoromethyl)-3H-imidazo[4,5-c]pyridine], the pest or weed control at 100 ppm in the test with Ctenocephalides felis [4] and in the test with Lucilia cuprina was 95% throughout. In addition, the pest or weed control at 4 ppm in the test on Myzus persicae [2] came to 100%. Further, the pest or weed control at 100 g/ha came out at 70% in the test on Myzus persicae [1] and 100% with Phaedon cochleariae.
With `CCS(=O)(=O)c1c(-c2nc3cc(C(F)(F)F)ncc3n2C)nc(-c2cnn(C3CC3)c2)n1C` [Example I-055], the pest or weed control at 100 ppm in the test with Ctenocephalides felis [4] and in the test on Lucilia cuprina was 100% throughout. For the same compound, the pest or weed control at 4 ppm in the test with Myzus persicae [2] came out at 100%. Besides, the results for the pest or weed control at 100 g/ha with Myzus persicae [1], with Phaedon cochleariae and in the test on Tetranychus urticae were 90%, 100% and 90%, respectively.
For the compound `CCS(=O)(=O)c1c(-c2nc3cc(C(F)(F)F)ncc3n2C)nc(-c2cccc(C3(C#N)CC3)c2)n1C` [Example I-087], the pest or weed control at 4 ppm with Myzus persicae [2] is 100%. Besides, the pest or weed control at 100 g/ha in the test with Phaedon cochleariae and with Spodoptera frugiperda was 100% each time. Further, the pest or weed control at 20 g/ha in the test on Tetranychus urticae amounted to 90%.
As to `CCS(=O)(=O)c1c(-n2cc3ccc(C(F)(F)F)cc3n2)nc(-c2ccc(Cl)cc2)n1C` [Example I-092], the pest or weed control at 100 ppm with Lucilia cuprina was 100%. In the test on Myzus persicae [2], the pest or weed control at 4 ppm amounted to 100%. For the same compound, the pest or weed control at 100 g/ha in the test on Phaedon cochleariae turned out to be 67%; in the test with Spodoptera frugiperda, 100%; in the test on Tetranychus urticae it was 100%.
Consider `CCS(=O)(=O)c1c(-c2nc3cc(C(F)(F)F)ncc3n2C)nc(C(C)C)n1C` [Example I-086], for which, in the test with Myzus persicae [2], the pest or weed control at 4 ppm amounted to 100%. Moreover, the pest or weed control at 100 g/ha in the test with Myzus persicae [1] and in the test on Tetranychus urticae was 90% in each case.
As to `CCS(=O)(=O)c1c(-c2nc3cc(C(F)(F)F)ncc3n2C)nc(-c2cc(Cl)cc(C3(C#N)CC3)c2)n1C` [Example I-077], the results for the pest or weed control at 100 g/ha with Myzus persicae [1], in the test on Phaedon cochleariae and with Tetranychus urticae were 90%, 100% and 100%, respectively. For the same compound, the pest or weed control at 20 g/ha in the test on Tetranychus urticae turned out to be 90%.
For the compound `CCS(=O)(=O)c1c(-c2nc3cc(C(F)(F)F)ncc3n2C)nc(-c2cnn(C)c2)n1C` [Example I-042], in the test on Myzus persicae [2], the pest or weed control at 4 ppm was determined as 100%. Also, the pest or weed control at 100 g/ha in the test with Myzus persicae [1] was determined as 90%; in the test with Phaedon cochleariae, 100%. For the same compound, the pest or weed control at 20 g/ha in the test on Tetranychus urticae stood at 90%.
Turning to `CCS(=O)(=O)c1c(-c2nc3cc(C(F)(F)F)ncc3n2C)nc(-c2c(C)nn(C)c2C)n1C` [Example I-050], the pest or weed control at 4 ppm with Myzus persicae [2] stood at 90%. Besides, the pest or weed control at 100 g/ha in the test on Myzus persicae [1] and in the test with Tetranychus urticae was 90% in each case.
Turning to `CCS(=O)(=O)c1c(-c2nc3cc(C(F)(F)F)ncc3n2C)nc(-c2ccc(C(C)(C)C#N)cc2)n1C` [Example I-066], the pest or weed control at 4 ppm in the test with Myzus persicae [2] was found to be 100%. In addition, the values for the pest or weed control at 100 g/ha in the test with Myzus persicae [1] and in the test with Tetranychus urticae were 70% and 90%, respectively. Also, in the test on Phaedon cochleariae (application rate 500 g/ha), the pest or weed control at 500 g/ha was determined as 83%.
